Literature values as cited in publication PMC3918212 (Biopolymers, 2013).

Settings: PBS at 37 °C

Sequence: MATLEKLMKAFESLKSF [htt^NT]
- Aggregation behaviour on incubation: slow, concentration dependent conversion into an α-helix rich, sedimentable oligomer
